System: blood-glucose concentration
Experiment: Decrease in blood-glucose concentration in rats after oral dose (Table 1; ED30 rats Table 2)
Assay type: in vivo
Settings: Rattus norvegicus, po, p.os. 1 mg/kg, 1 h
Source text: The hypoglycemic activity of N-{4-[2-(pyrazole-1-carbonamide)-ethyl]-benzenesulphonyl}-ureas prepared according to the present invention can be noticed after their oral administration to mice, rats, rabbits and people and when determining the glucose concentration in blood with a known enzymatic method using glucose oxidase.
The exemplary comparison of effective doses (ED30) and the effect of oral dose size of the compounds prepared according to the present invention with Glibornuride, which is distinguished by its high effectiveness and good tolerance when administered to people, on the glucose concentration in the blood of rats, is given in Table 1.

| Structure (SMILES) | inhibition in vivo at 1 mg/kg [%] |
| --- | --- |
| CCc1nn(C(=O)NCCc2ccc(S(=O)(=O)NC(=O)NC3CCCCC3)cc2)cc1C [compound 8] | 17 |
| Cc1cnn(C(=O)NCCc2ccc(S(=O)(=O)NC(=O)NC3CCCCC3)cc2)c1 [compound 3] | 20 |
| Cc1ccn(C(=O)NCCc2ccc(S(=O)(=O)NC(=O)NC3CCCCC3)cc2)n1 [compound 2] | 19 |
| Cc1nn(C(=O)NCCc2ccc(S(=O)(=O)NC(=O)NC3CCCCC3)cc2)c(C)c1Cl [compound 14] | 11 |

Same assay, conditions: Rattus norvegicus, po, p.os. 1 mg/kg, 3 h

| Structure (SMILES) | inhibition in vivo at 1 mg/kg [%] |
| --- | --- |
| CCc1nn(C(=O)NCCc2ccc(S(=O)(=O)NC(=O)NC3CCCCC3)cc2)cc1C [compound 8] | 18 |
| Cc1cnn(C(=O)NCCc2ccc(S(=O)(=O)NC(=O)NC3CCCCC3)cc2)c1 [compound 3] | 18 |
| Cc1ccn(C(=O)NCCc2ccc(S(=O)(=O)NC(=O)NC3CCCCC3)cc2)n1 [compound 2] | 9 |
| Cc1nn(C(=O)NCCc2ccc(S(=O)(=O)NC(=O)NC3CCCCC3)cc2)c(C)c1Cl [compound 14] | 21 |

Same assay, conditions: Rattus norvegicus, po, p.os. 1 mg/kg, 6 h

| Structure (SMILES) | inhibition in vivo at 1 mg/kg [%] |
| --- | --- |
| CCc1nn(C(=O)NCCc2ccc(S(=O)(=O)NC(=O)NC3CCCCC3)cc2)cc1C [compound 8] | 15 |
| Cc1cnn(C(=O)NCCc2ccc(S(=O)(=O)NC(=O)NC3CCCCC3)cc2)c1 [compound 3] | 4 |
| Cc1ccn(C(=O)NCCc2ccc(S(=O)(=O)NC(=O)NC3CCCCC3)cc2)n1 [compound 2] | 0 |
| Cc1nn(C(=O)NCCc2ccc(S(=O)(=O)NC(=O)NC3CCCCC3)cc2)c(C)c1Cl [compound 14] | 7 |

Same assay, conditions: Rattus norvegicus, po, p.os. 2 mg/kg, 1 h

| Structure (SMILES) | inhibition in vivo at 2 mg/kg [%] |
| --- | --- |
| Cc1cnn(C(=O)NCCc2ccc(S(=O)(=O)NC(=O)NC3CCCC3)cc2)c1 [compound 17] | 29 |
| Cc1cnn(C(=O)NCCc2ccc(S(=O)(=O)NC(=O)NC3CCCCC3)cc2)c1 [compound 3] | 35 |
| Cc1ccn(C(=O)NCCc2ccc(S(=O)(=O)NC(=O)NC3CCCCC3)cc2)n1 [compound 2] | 23 |
| Cc1nn(C(=O)NCCc2ccc(S(=O)(=O)NC(=O)NC3CCCCC3)cc2)c(C)c1Cl [compound 14] | 14 |

Same assay, conditions: Rattus norvegicus, po, p.os. 2 mg/kg, 3 h

| Structure (SMILES) | inhibition in vivo at 2 mg/kg [%] |
| --- | --- |
| Cc1cnn(C(=O)NCCc2ccc(S(=O)(=O)NC(=O)NC3CCCC3)cc2)c1 [compound 17] | 16 |
| Cc1cnn(C(=O)NCCc2ccc(S(=O)(=O)NC(=O)NC3CCCCC3)cc2)c1 [compound 3] | 28 |
| Cc1ccn(C(=O)NCCc2ccc(S(=O)(=O)NC(=O)NC3CCCCC3)cc2)n1 [compound 2] | 27 |
| Cc1nn(C(=O)NCCc2ccc(S(=O)(=O)NC(=O)NC3CCCCC3)cc2)c(C)c1Cl [compound 14] | 24 |

Same assay, conditions: Rattus norvegicus, po, p.os. 2 mg/kg, 6 h

| Structure (SMILES) | inhibition in vivo at 2 mg/kg [%] |
| --- | --- |
| Cc1cnn(C(=O)NCCc2ccc(S(=O)(=O)NC(=O)NC3CCCC3)cc2)c1 [compound 17] | 5 |
| Cc1cnn(C(=O)NCCc2ccc(S(=O)(=O)NC(=O)NC3CCCCC3)cc2)c1 [compound 3] | 2 |
| Cc1ccn(C(=O)NCCc2ccc(S(=O)(=O)NC(=O)NC3CCCCC3)cc2)n1 [compound 2] | 14 |
| Cc1nn(C(=O)NCCc2ccc(S(=O)(=O)NC(=O)NC3CCCCC3)cc2)c(C)c1Cl [compound 14] | 14 |

Same assay, conditions: Rattus norvegicus, po, p.os. 4 mg/kg, 1 h

| Structure (SMILES) | inhibition in vivo at 4 mg/kg [%] |
| --- | --- |
| Cc1cnn(C(=O)NCCc2ccc(S(=O)(=O)NC(=O)NC3CCCC3)cc2)c1 [compound 17] | 41 |
| CCc1nn(C(=O)NCCc2ccc(S(=O)(=O)NC(=O)NC3CCCCC3)cc2)cc1C [compound 8] | 19 |
| Cc1cnn(C(=O)NCCc2ccc(S(=O)(=O)NC(=O)NC3CCCCC3)cc2)c1 [compound 3] | 33 |
| Cc1ccn(C(=O)NCCc2ccc(S(=O)(=O)NC(=O)NC3CCCCC3)cc2)n1 [compound 2] | 30 |
| Cc1nn(C(=O)NCCc2ccc(S(=O)(=O)NC(=O)NC3CCCCC3)cc2)c(C)c1Cl [compound 14] | 21 |

Same assay, conditions: Rattus norvegicus, po, p.os. 4 mg/kg, 3 h

| Structure (SMILES) | inhibition in vivo at 4 mg/kg [%] |
| --- | --- |
| Cc1cnn(C(=O)NCCc2ccc(S(=O)(=O)NC(=O)NC3CCCC3)cc2)c1 [compound 17] | 41 |
| CCc1nn(C(=O)NCCc2ccc(S(=O)(=O)NC(=O)NC3CCCCC3)cc2)cc1C [compound 8] | 31 |
| Cc1cnn(C(=O)NCCc2ccc(S(=O)(=O)NC(=O)NC3CCCCC3)cc2)c1 [compound 3] | 32 |
| Cc1ccn(C(=O)NCCc2ccc(S(=O)(=O)NC(=O)NC3CCCCC3)cc2)n1 [compound 2] | 45 |
| Cc1nn(C(=O)NCCc2ccc(S(=O)(=O)NC(=O)NC3CCCCC3)cc2)c(C)c1Cl [compound 14] | 29 |

Same assay, conditions: Rattus norvegicus, po, p.os. 4 mg/kg, 6 h

| Structure (SMILES) | inhibition in vivo at 4 mg/kg [%] |
| --- | --- |
| Cc1cnn(C(=O)NCCc2ccc(S(=O)(=O)NC(=O)NC3CCCC3)cc2)c1 [compound 17] | 23 |
| CCc1nn(C(=O)NCCc2ccc(S(=O)(=O)NC(=O)NC3CCCCC3)cc2)cc1C [compound 8] | 15 |
| Cc1ccn(C(=O)NCCc2ccc(S(=O)(=O)NC(=O)NC3CCCCC3)cc2)n1 [compound 2] | 21 |
| Cc1nn(C(=O)NCCc2ccc(S(=O)(=O)NC(=O)NC3CCCCC3)cc2)c(C)c1Cl [compound 14] | 11 |

Same assay, conditions: Rattus norvegicus, po, p.os. 10 mg/kg, 1 h

| Structure (SMILES) | inhibition in vivo at 10 mg/kg [%] |
| --- | --- |
| Cc1cnn(C(=O)NCCc2ccc(S(=O)(=O)NC(=O)NC3CCCC3)cc2)c1 [compound 17] | 41 |
| CCc1nn(C(=O)NCCc2ccc(S(=O)(=O)NC(=O)NC3CCCCC3)cc2)cc1C [compound 8] | 27 |
| Cc1cnn(C(=O)NCCc2ccc(S(=O)(=O)NC(=O)NC3CCCCC3)cc2)c1 [compound 3] | 52 |

Same assay, conditions: Rattus norvegicus, po, p.os. 10 mg/kg, 3 h

| Structure (SMILES) | inhibition in vivo at 10 mg/kg [%] |
| --- | --- |
| Cc1cnn(C(=O)NCCc2ccc(S(=O)(=O)NC(=O)NC3CCCC3)cc2)c1 [compound 17] | 51 |
| CCc1nn(C(=O)NCCc2ccc(S(=O)(=O)NC(=O)NC3CCCCC3)cc2)cc1C [compound 8] | 45 |
| Cc1cnn(C(=O)NCCc2ccc(S(=O)(=O)NC(=O)NC3CCCCC3)cc2)c1 [compound 3] | 48 |

Same assay, conditions: Rattus norvegicus, po, p.os. 10 mg/kg, 6 h

| Structure (SMILES) | inhibition in vivo at 10 mg/kg [%] |
| --- | --- |
| Cc1cnn(C(=O)NCCc2ccc(S(=O)(=O)NC(=O)NC3CCCC3)cc2)c1 [compound 17] | 28 |
| CCc1nn(C(=O)NCCc2ccc(S(=O)(=O)NC(=O)NC3CCCCC3)cc2)cc1C [compound 8] | 25 |
| Cc1cnn(C(=O)NCCc2ccc(S(=O)(=O)NC(=O)NC3CCCCC3)cc2)c1 [compound 3] | 37 |

Same assay, conditions: Rattus norvegicus, po, p.os., Table 1

| Structure (SMILES) | ED50 [mg/kg] |
| --- | --- |
| Cc1cnn(C(=O)NCCc2ccc(S(=O)(=O)NC(=O)NC3CCCC3)cc2)c1 [compound 17] | 2.3 |
| CCc1nn(C(=O)NCCc2ccc(S(=O)(=O)NC(=O)NC3CCCCC3)cc2)cc1C [compound 8] | 4 |
| Cc1cnn(C(=O)NCCc2ccc(S(=O)(=O)NC(=O)NC3CCCCC3)cc2)c1 [compound 3] | 1.9 |
| Cc1ccn(C(=O)NCCc2ccc(S(=O)(=O)NC(=O)NC3CCCCC3)cc2)n1 [compound 2] | 2.2 |
| Cc1nn(C(=O)NCCc2ccc(S(=O)(=O)NC(=O)NC3CCCCC3)cc2)c(C)c1Cl [compound 14] | 5 |
